According to patent US12065438B2, “Substituted tricyclic compounds as indoleamine 2,3-dioxygenase inhibitors” (Merck Sharp & Dohme LLC, priority 2019, dated 2024):

These compounds were tested against IDO1 (Homo sapiens, UniProt P14902) (assay: IDO1 Cellular Assay in HeLa Cells Stimulated with IFNγ). Conditions: HeLa cells stimulated with IFNγ 100 ng/mL, 300 uM L-tryptophan, about 48 hours, fluorescence readout; read-out: IDO1 HELA Cell Assay, IC50.
Format: cell-based
Parameters: endogenous in cells; host or cells: HeLa cells stimulated with IFNγ
Description: Biological Assays IDO1 Cellular Assay in HeLa Cells Stimulated with IFNγ HeLa cells were cultured in complete HeLa culture medium (90% EMEM, 10% heat-inactivated fetal bovine serum) and expanded to about 1×10^9 cells. The cells were then collected and frozen down at 1×10^7 cells/vial in 1 mL frozen medium (90% complete HeLa culture medium, 10% DMSO). Compounds to be tested were serially diluted in ten 3-fold steps in DMSO starting from 10 mM DMSO stocks in Echo low volume plate(s). Compound dilutions or DMSO alone were then dispensed from the dilution plate(s) into Greiner black 384-well assay plate(s) (catalog #781086, 50 nL/well) using an Echo 550 acoustic liquid handler (Labcyte). Frozen HeLa cells were thawed and transferred into HeLa assay medium (99% complete HeLa culture medium, 1% Pen/Strep) with 20 mL medium/vial of cells. The cells were spun down at 250 g in a table top centrifuge for 5 min and suspended in same volume of HeLa assay medium. The cells were then counted and adjusted to a density of 2×10^5 cells/mL in HeLa assay medium. Sterile L-tryptophan were added to the cells with final concentration of 300 uM L-tryptophan. A small aliquot (2 mL/plate) of HeLa cells were set aside and were not treated with IFNγ, to serve as the Max-E control. The rest of HeLa cells were added with sterile IFNγ (Cat #285-IF, R & D systems) with a final concentration of 100 ng/mL. HeLa cells with and without IFNγ were dispensed to the respective wells of 384-well assay plates containing the compounds. The plates were incubated for about 48 hours at a 37° C., 5% CO2 incubator. Afterwards, 12 μL of 0.5 M methyl isonipecotate in dimethyl sulfoxide were added into each well and the plates were sealed and incubated at 37° C. without CO2 overnight. The plates were centrifuged for 1 min at 200×g. The resulting fluorescence was measured in a Spectramax plate reader (Molecular Devices) with a 400 nm excitation filter and a 510 nm emission filter. The fluorescence intensity of each well was corrected for the background observed in wells with non-IFNγ-treated cells and was expressed as a fraction of the intensity observed in wells of IFNγ-treated cells and DMSO only. Potencies were calculated by […] least squares fit to the four parameter logistic IC50 equation.

IDO1, sequence (P14902 whole entry): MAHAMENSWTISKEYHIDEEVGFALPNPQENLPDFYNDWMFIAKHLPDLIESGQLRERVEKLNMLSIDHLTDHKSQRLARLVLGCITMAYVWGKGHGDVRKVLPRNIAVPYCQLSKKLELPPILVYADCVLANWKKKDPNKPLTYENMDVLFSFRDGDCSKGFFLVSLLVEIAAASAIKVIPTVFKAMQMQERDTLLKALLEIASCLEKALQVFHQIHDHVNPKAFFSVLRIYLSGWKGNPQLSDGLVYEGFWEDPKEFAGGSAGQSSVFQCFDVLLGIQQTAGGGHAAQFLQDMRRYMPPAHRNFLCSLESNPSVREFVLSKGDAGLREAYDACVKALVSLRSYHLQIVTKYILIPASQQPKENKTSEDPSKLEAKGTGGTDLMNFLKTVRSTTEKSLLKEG

SMILES	IC50 [nM]
Cc1nccc(N2C[C@H]3C[C@H]3c3nc([C@]4(NC(=O)c5ccc(F)cc5)C[C@H]4C)ccc32)n1 [Example 44, 4-fluoro-N-((1S,2R)-2-methyl-1-((6aS,7aR)-5-(2-methyl-pyrimidin-4-yl)-6,6a,7,7a-tetra-hydro-5H-cyclopropa[c][1,5]-naphthyridin-2-yl)cyclopropyl)-benzamide]	4.34
CC(C)(NC(=O)c1ccc(F)cc1)c1ccc2c(n1)[C@H]1C[C@H]1CN2C(=O)OC1CC1 (single isomer, unassigned) [Example 34]	221
Cc1nccc(N2C[C@@H]3C[C@@H]3c3nc([C@]4(NC(=O)c5ccc(F)cc5)C[C@H]4C)ccc32)n1 [Example 39, 4-fluoro-N-((1S,2R)-2-methyl-1-((6aR,7aS)-5-(2-methyl-pyrimidin-4-yl)-6,6a,7,7a-tetra-hydro-5H-cyclopropa[c][1,5]-naphthyridin-2-yl)cyclopropyl)-benzamide]	10.5
CC(C)(C)OC(=O)N1C[C@H]2C[C@H]2c2nc(C3(NC(=O)c4ccc(F)cc4)CC3)ccc21 [Example 53, tert-butyl (6aS,7aR)-2-(1-(4-fluorobenzamido)cyclopropyl)-6,6a,7,7a-tetrahydro-5H-cyclo-propa[c][1,5]naphthyridine-5-carboxylate]	4.62
Cc1nccc(N2C[C@@H]3C[C@@H]3c3cc(C4(NC(=O)c5ccc(F)cc5)CC4)ccc32)n1 (single isomer, unassigned) [Example 2]	1.5
Cc1nccc(N2CC3CC3c3nc(C4(NC(=O)c5ccc(F)cc5)CC4C)ccc32)n1 (racemic) [Example 47, 4-fluoro-N-(2-methyl-1-(5-(2-methylpyrimidin-4-yl)-6,6a, 7,7a-tetrahydro-5H-cyclopropa[c][1, 5]naphthyridin-2-yl)cyclopropyl)benzamide]	52
Cc1nccc(N2C[C@H]3C[C@H]3c3nc(C4(NC(=O)c5ccc(F)cc5)CC4)ccc32)n1 (stereo in doubt) [Example 13, 4-fluoro-N-(1-(5-(2-methylpyrimidin-4-yl)-6,6a,7,7a-tetrahydro-5H-cyclopropa[c][1,5]naphthyridin-2-yl)cyclopropyl)benzamide]	1.07
O=C(NC1(c2ccc3c(n2)[C@H]2C[C@H]2CN3C(=O)OC2CCOCC2)CC1)c1ccc(F)cc1 [Example 22, tetrahydro-2H-pyran-4-yl (6aR,7aS)-2-(1-(4-fluorobenzamido)cyclo-propyl)-6,6a,7,7a-tetra-hydro-5H-cyclopropa[c]-[1,5]naphthyridine-5-carboxylate]	61.6
Cc1nccc(N2c3ccc(C4(NC(=O)c5ccc(F)cc5)CC4)nc3C3CC2C3)n1 [Example 51, 4-fluoro-N-(1-(1-(2-methylpyrimidin-4-yl)-1,2,3,4-tetrahydro-2,4-methano-1,5-naphthyridin-6-yl)cyclopropyl)benzamide]	8.08
Cc1nccc(N2c3ccc(C4(NC(=O)c5ccc(F)cc5)CC4)cc3C3CC32)n1 (single isomer, unassigned) [Example 8, 4-fluoro-N-(1-(2-(2-methylpyrimidin-4-yl)-1,1a,2,6b-tetrahydrocyclopropa[b]indol-5-yl)cyclopropyl)benzamide]	2.91
CCC(NC(=O)c1ccc(F)cc1)c1ccc2c(n1)C1CC1CN2c1ccnc(C)n1 (racemic) [Example 38, 4-fluoro-N-(1-(5-(2-methyl-pyrimidin-4-yl)-6,6a,7,7a-tetrahydro-5H-cyclopropa[c]-[1,5]naphthyridin-2-yl)propyl)-benzamide]	6.77
Cc1nccc(N2c3ccc(C4(NC(=O)c5ccc(F)cc5)CC4)cc3C3CC32)n1 (single isomer, unassigned) [Example 9, 4-fluoro-N-(1-(2-(2-methylpyrimidin-4-yl)-1,1a,2,6b-tetrahydrocyclopropa[b]indol-5-yl)cyclopropyl)benzamide]	8.21
Cc1nccc(N2CC3CC3c3nc(C(C)(C)NC(=O)c4ccc(F)cc4)ccc32)n1 (racemic) [Example 29, 4-fluoro-N-(2-(5-(2-methylpyrimidin-4-yl)-6,6a,7,7a-tetrahydro-5H-cyclopropa[c][1,5]naphthyridin-2-yl)propan-2-yl)benzamide]	90
C[C@H](NC(=O)c1ccc(F)cc1)c1ccc2c(n1)[C@@H]1C[C@@H]1CN2C(=O)OC1CC1 [Example 26, cyclopropyl (6aS,7aR)-2-((S)-1-(4-fluorobenzamido)-ethyl)-6,6a,7,7a-tetrahydro-5H-cyclopropa[c][1,5]-naphthyridine-5-carboxylate]	35
CC(C)(C)OC(=O)N1CC2CC2c2nc(C(C)(C)NC(=O)c3ccc(F)cc3)ccc21 (centres unmarked) [Example 55, tert-butyl 2-(2-(4-fluorobenz-amido)propan-2-yl)-6,6a,7,7a-tetrahydro-5H-cyclopropa[c]-[1,5]naphthyridine-5-carboxylate]	16.6
O=C(NC1(c2ccc3c(n2)C2CC(C2)N3C(=O)OC2CC2)CC1)c1ccc(F)cc1 [Example 50, cyclopropyl 6-(1-(4-fluorobenzamido)cyclopropyl)-3,4-dihydro-2,4-methano-1,5-naphthyridine-1(2H)-carboxylate]	5.76
CCC(NC(=O)c1ccc(F)cc1)c1ccc2c(n1)C1CC1CN2C(=O)OC1CC1 (single isomer, unassigned) [Example 36, cyclopropyl 2-(1-(4-fluorobenzamido)propyl)-6,6a,7,7a-tetrahydro-5H-cyclopropa[c][1,5]naphthyridine-5-carboxylate]	211
